Consider 4 compounds from US9988407B2, “Prodrugs of prostate specific membrane antigen (PSMA) inhibitor” (THE JOHNS HOPKINS UNIVERSITY, priority 2014, dated 2018).

“Also recorded” adds a separate entry of the source.

Series [1] can be described thus: PK of JAM0388 after oral gavage, 2-PMPA in brain and plasma. Type of series: in vivo. To be noted: 30 mg/kg equivalent of 2-PMPA by oral gavage.
Series [2] can be described thus: In vivo pharmacokinetics in mice, peroral, bioanalysis method 1 (total prodrug exposure). To be noted: mice, oral dosing. The method, then:
Blood was obtained via cardiac puncture and tissue dissected at 0 min, 15 min, 30 min, 1 h, 2 h, and 4 h post dose (n=3 per time point). Single time point studies were conducted at 30 min (N=3) following dosing. Plasma was harvested from blood by centrifugation. Mean concentration-time data was used for pharmacokinetic (PK) analysis. Non-compartmental-analysis module in WinNonlin® (version 5.3) was used to assess pharmacokinetic parameters. Peak plasma concentrations (Cmax) and time to Cmax (Tmax) were the observed values. Area under the curve (AUC) was calculated by log-linear (p.o.) trapezoidal rule to the end of sample collection (AUClast) and extrapolated to infinity (AUC0-∞) by dividing the last quantifiable concentration by the terminal disposition rate constant (ke). Terminal half-life (t1/2) was estimated from first order kinetics: t1/2=0.693/ke.
Briefly, prior to extraction, frozen samples were thawed on ice. For plasma extraction, 50 μL of the calibration standards or samples were transferred into silanized microcentrifuge tubes. Sample preparation involved a single liquid extraction by addition of 300 μL of methanol as extraction solution with internal standard (i.e., 5 μM of 2-PMSA in methanol), followed by vortexing for 30 s and then centrifugation at 12000 g for 10 min. Supernatant was transferred (˜250 μL) and evaporated to dryness at 40° C. under a gentle stream of nitrogen. The residue was reconstituted with 100 μL of derivatizing agent, n-butanol with 3N HCl, and samples were vortexed. The samples were heated at ˜60 OC in a shaking water bath for 30 min. At the end of 30 min, the derivatized samples were allowed to cool at room temperature and dried again for removal of derivatizing reagent, under a gentle stream of nitrogen. The residue was reconstituted in 100 μL of 30% acetonitrile in water v/v. The samples were vortexed and centrifuged again. ˜80 μL supernatant was transferred to a 250 μL polypropylene vial sealed with a Teflon cap and a volume of 10 μL was injected onto the ultra-performance liquid chromatography (UPLC) instrument for quantitative analysis. Chromatographic analysis was performed using an Accela™ ultra high-performance system consisting of an analytical pump, and an autosampler coupled with TSQ Vantage mass spectrometer (Thermo Fisher Scientific Inc., Waltham Mass.). […] The mobile phase used was composed of 0.1% formic acid in acetonitrile and 0.1% formic acid in H2O with gradient elution, starting with 20% (organic) linearly increasing to 65% up to 2.5 min, maintaining at 65% (2.5-3.5 min) and reequilibrating to 30% by 5 min. The total run time for each analyte was 5.0 min.

A short description of series [3]: In vivo pharmacokinetics in mice, peroral, bioanalysis method 2 (2-PMPA release). To be noted: mouse, in vivo. The method, then: Blood was obtained via cardiac puncture and tissue dissected at 0 min, 15 min, 30 min, 1 h, 2 h, and 4 h post dose (n=3 per time point). Single time point studies were conducted at 30 min (N=3) following dosing. Plasma was harvested from blood by centrifugation. Mean concentration-time data was used for pharmacokinetic (PK) analysis. Non-compartmental-analysis module in WinNonlin® (version 5.3) was used to assess pharmacokinetic parameters. Peak plasma concentrations (Cmax) and time to Cmax (Tmax) were the observed values. Area under the curve (AUC) was calculated by log-linear (p.o.) trapezoidal rule to the end of sample collection (AUClast) and extrapolated to infinity (AUC0-∞) by dividing the last quantifiable concentration by the terminal disposition rate constant (ke). […] The tissues were stored in −20° C. for 1 h and then homogenized. The calibration curve for the tissues was developed using naïve mouse brains from untreated animals as a matrix. For sciatic nerve, the nerves were weighed and homogenized in 50 μL methanol and the calibration curve was developed using naïve sciatic nerves from untreated animals as a matrix. The samples were vortexed and centrifuged. […] Supernatant was dried under a gentle stream of nitrogen at 45° C. and the residue reconstituted with 75 μL of acetonitrile and vortexed. 25 μL of derivatizing agent N-tert-Butyldimethysilyl-N-methyltrifluoro-acetamide (MTBSTFA) was added to microcentrifuge tubes, vortexed, and heated at ˜60 OC for 40 min. At the end of 40 min, the derivatized samples ˜75 μL were transferred to a 250 μL polypropylene vials and were analyzed via LC/MS/MS. Chromatographic analysis was performed using an Accela™ ultra high-performance system consisting of an analytical pump, and an autosampler coupled with TSQ Vantage mass spectrometer (Thermo Fisher Scientific Inc., Waltham Mass.). […] The total run time for each analyte was 5.0 min. Chromatographic analysis will be performed on Accela UPLC.

Series [4] can be described thus: In vitro metabolic stability screen in plasma and liver subcellular fractions (results in words). It counts as in vitro ADME. The conditions noted are these: 60 min incubation. Here is the method:
(§1) For metabolic stability, plasma (mouse, dog, monkey and human) and liver microsomes (mouse, dog, monkey and human) were used. For stability, prodrugs (10 μM) were spiked in each matrix and incubated in an orbital shaker at 37° C. At predetermined times (0, 30 and 60 min), 100 μL aliquots of the mixture in triplicate were removed and the reaction quenched by addition of three times the volume of ice cold acetonitrile spiked with the internal standard (losartan 5 μM). The samples were vortexed for 30 s and centrifuged 12000 g for 10 min. 50 μL supernatant diluted with 50 μL water was transferred to a 250 μL polypropylene vial sealed with a Teflon cap. Prodrug disappearance was monitored over time using a liquid chromatography and tandem mass spectrometry (LC/MS/MS) method as described below.
(§2) For LC/MS/MS, prodrugs were separated with Thermo Scientific Accela UPLC system coupled to Accela open autosampler on an Agilent C18 (100×2.1 mm id) UPLC column. The autosampler was temperature controlled and operating at 10° C. The mobile phase used for the chromatographic separation was composed of acetonitrile/water containing 0.1% formic acid and was run at a flow rate of 0.5 mL/minute for 4.5 minutes using gradient elution. The column effluent was monitored using TSQ Vantage triple-quadrupole mass spectrometric detector, equipped with an electrospray probe set in the positive ionization mode. Samples were introduced into the ionization source through a heated nebulized probe (350° C.).
For quantification of compound remaining, disappearance of prodrugs was measured from ratio of peak areas of analyte to IS. Percentage remaining was calculated in the following manner:
In general, the prodrugs were screened by an in vitro metabolic stability screen, and if positive, followed by an in vivo single time point pharmacokinetic study, and in select cases, an in vivo full time course pharmacokinetic study (FIG. 3). In this Example, the four acidic functional groups in 2-PMPA were systematically capped. The carboxylic acids were first masked with simple alkyl esters (Compounds 1, 2, and 3). In vitro chemical and metabolic stability of the prodrugs then were conducted, following 60 min incubation in plasma stability screens for prodrugs.

Series [5] in a line: Metabolic stability in mouse plasma. Type of series: in vitro ADME. To be noted: 10 μM, 37° C. Here is the method:
as §1, §2
(§3) For quantification of compound remaining, disappearance of prodrugs was measured from ratio of peak areas of analyte to IS. Percentage remaining was calculated in the following manner: […]

A short description of series [6]: Metabolic stability in mouse liver S9. It counts as in vitro ADME. To be noted: Mouse S9, 10 μM, 37° C.
Series [7] in a line: Metabolic stability in mouse liver microsomes. The conditions noted are these: 10 μM, 37° C. It counts as in vitro ADME. The method, then: as §1, §2, §3
For orientation: Microsomes from liver hold many membrane-bound enzymes, among them those of drug oxidation.

Series [8] in a line: Metabolic stability in human plasma. It counts as in vitro ADME. The conditions noted are these: 10 μM, 37° C. The method, then: as §1, §2, §3
Series [9] can be described thus: Metabolic stability in human liver microsomes. Type of series: in vitro ADME. The conditions noted are these: 10 μM, 37° C. The method, then: as §1, §2, §3
Series [10] is described as follows: Chemical stability in HBSS buffer (pH 7.4) / simulated gastric fluid. It counts as physicochemical. To be noted: HBSS, 10 μM, 37° C. The method, then: The chemical stability of prodrugs was evaluated using simulated gastric fluid (pH 1.2) and Hanks' Balanced Salt Solution (HBSS) buffer (pH 7.4). Briefly, prodrugs were spiked (10 μM) in respective solutions and incubated at 37° C. for 1 h. At predetermined time points (0, 30 and 60 min), aliquots of 100 μL were removed and diluted with 100 μL of water. Prodrug disappearance was monitored using the developed liquid chromatography and tandem mass spectrometry (LC/MS/MS) method described below.
as §2, §3

As for “4-((diphenoxyphosphoryl)methyl)-5-(((isopropoxycarbonyl)oxy)methoxy)-5-oxopentanoic acid [Compound 30]”, in [1] (brain at 30 min and 5 h), the “brain levels of 2-PMPA” value is “low at both time points”. In addition, the “release of 2-PMPA in plasma” value in series [1] (plasma at 30 min and 5 h) is reported as “excellent release of 2-PMPA in plasma”.
Turning to `CCCOC(=O)CCC(CP(=O)(O)O)C(=O)OCCC` (centres unmarked) [Compound 3, [5-Oxo-5-propoxy-2-(propoxycarbonyl)pentyl]phosphonic acid], the “permeability in vivo” value in [2] was “then the propyl ester”. The “stability of carboxylic esters in vivo” value in series [3] is listed as “too stable in vivo”. Further, the “in vitro metabolic stability” value in [4] is on record as “too stable”.
Turning to `CCOC(=O)CCC(CP(=O)(O)O)C(=O)OCC` (centres unmarked) [Compound 2, [5-Ethoxy-2-(ethoxycarbonyl)-5-oxopentyl]phosphonic acid], the Percentage remaining was determined as 100% in series [5] (0 min); 99% in series [5] (30 min); 83% in [5] (60 min); 100% in series [6] (0 min); 103% in [6] (30 min); 103% in series [6] (60 min). In addition, the Percentage remaining in [7] (0 min) is listed as 100%; in series [7] (30 min) it was 99%; in [7] (60 min), 88%; in [8] (0 min), 100%; in series [8] (30 min), 81%; in [8] (60 min) it was 59%. The values for the Percentage remaining in series [9] (0 min), in series [9] (30 min) and in series [9] (60 min) were 100%, 88% and 73%, respectively. Moreover, the “permeability in vivo” value in series [2] is recorded as “showed the most permeability”. The “stability of carboxylic esters in vivo” value in [3] is recorded as “too stable in vivo”. Besides, the “in vitro metabolic stability” value in series [4] is on record as “too stable”.
As to `COC(=O)CCC(CP(=O)(O)O)C(=O)OC` (centres unmarked) [Compound 1, [5-(Methyloxy)-2-(methoxycarbonyl)-5-oxopentyl]phosphonic acid], the Percentage remaining in [10] (0 min) was 100%; in [10] (30 min), 92%; in [10] (60 min), 94%; in series [5] (0 min) it was 100%; in [5] (30 min), 102%; in [5] (60 min), 101%. For the same compound, the Percentage remaining stood at 100% in series [6] (0 min); 101% in series [6] (30 min); 86% in series [6] (60 min); 100% in series [7] (0 min); 102% in series [7] (30 min); 103% in series [7] (60 min). Moreover, the Percentage remaining is given as 100% in series [8] (0 min); 100% in series [8] (30 min); 86% in series [8] (60 min); 100% in series [9] (0 min); 90% in series [9] (30 min); 96% in [9] (60 min). The “stability of carboxylic esters in vivo” value in series [3] is given as “too stable in vivo”. The “in vitro metabolic stability” value is given as “too stable; also recorded: stable in plasma” in [4] and “too stable” in [4] (listed as JHU 2106).
